Results as given in paper PMC6332093, “Development of Radiolabeled Membrane Type-1 Matrix Metalloproteinase Activatable Cell Penetrating Peptide Imaging Probes” (Molecules, 2015).

Biological target: MT1-MMP (Homo sapiens, UniProt P50281)
Assay: MT1-MMP sensitivity of ACPP probes (LC-MS)
Type: biochemical
Details: peptide 0.1 mM, MT1-MMP 0.13 µM (method section: 15 nM), 60 min, 37 °C, 50 mM Tris, 200 mM NaCl, 10 mM CaCl2, 10 µM ZnCl2, pH 7.5, LC-MS; cleavage between Asn and Leu
Description: The peptides ACPP-A, ACPP-B, and ACPP-C (without SHPP functionality) were screened for MT1-MMP sensitivity by incubating the peptides (0.1 mM) with MT1-MMP (0.13 µM) for 60 min. For ACPP-A, a small fraction (<5%) of the peptide was cleaved between the asparagine and leucine residue (Figure 3A). […] ACPP-A analogs (a peptide probe lacking the 5-amino-3-oxapentanoic acid linker residues and its linear analog) were also synthesized and tested for MT1-MMP sensitivity, showing also a low degree of activation (Figure S2). Accordingly, a recent study found a poor response of a genetically encoded MT1-MMP biosensor employing the same substrate. […] Therefore, further in-depth analysis of the MT1-MMP specificity and in vivo characteristics of ACPP-A was not performed.
Figure 3 LC-MS characterization of ACPP-A, ACPP-B, and ACPP-C (0.1 mM) incubated with MT1-MMP (0.13 µM) for 60 min. The left and right graphs show the UV absorbance chromatogram and the mass spectra of the UV-peaks bracketed by the arrowheads, respectively. […]
ACPP-A, ACPP-B, and ACPP-C (0.1 mM) were incubated with 15 nM MT1-MMP in a mixture of 50 mM Tris, 200 mM NaCl, 10 mM CaCl2 and 10 µM ZnCl2 at pH 7.5 at 700 rpm and 37 °C. After 1 h, the enzyme was quenched by the addition of TFA (10% v/v), and the reaction mixture was analyzed by LC-MS.

- fraction of the peptide cleaved by MT1-MMP: < 5%
Structure (SMILES): CC(=O)N[C@H](Cc1ccc(O)cc1)C(=O)N[C@H](CCC(=O)O)C(=O)N[C@H](CCC(=O)O)C(=O)N[C@H](CCC(=O)O)C(=O)N[C@H](CCC(=O)O)C(=O)N[C@H](CCC(=O)O)C(=O)N[C@H](CCC(=O)O)C(=O)N[C@H](CCC(=O)O)C(=O)N[C@H](CCC(=O)O)C(=O)N[C@H](CCC(=O)O)C(=O)NCCOCC(=O)N[C@H]1CSSC[C@@H](C(=O)N[C@@H](CC(N)=O)C(=O)N[C@@H](CC(C)C)C(=O)N[C@@H](Cc2ccccc2)C(=O)N[C@H](C(=O)N[C@@H](CC(C)C)C(=O)N[C@@H](CCCCN)C(=O)N[C@@H](CC(=O)O)C(=O)NCCOCC(=O)N[C@H](CCCNC(=N)N)C(=O)N[C@H](CCCNC(=N)N)C(=O)N[C@H](CCCNC(=N)N)C(=O)N[C@H](CCCNC(=N)N)C(=O)N[C@H](CCCNC(=N)N)C(=O)N[C@H](CCCNC(=N)N)C(=O)N[C@H](CCCNC(=N)N)C(=O)N[C@H](CCCNC(=N)N)C(=O)N[C@H](CCCNC(=N)N)C(=O)N[C@H](CCNC(=O)CN2CCN(CC(=O)O)CCN(CC(=O)O)CCN(CC(=O)O)CC2)C(N)=O)C(C)C)NC(=O)[C@H](CO)NC(=O)[C@H](CCC(=O)O)NC(=O)[C@H](CCCCN)NC(=O)[C@@H]2CCCN2C1=O [ACPP-A, Ac-y-e9-X-C*PKESC*NLFVLKD-X-r9-dab(DOTA)-NH2]
